# Where two headings read alike, the source gives them in different places.
# Assays:
# Format in all cases: biochemical
# Btk = molecular target: T1, Btk (Homo sapiens, UniProt Q06187); assay: Btk in vitro inhibitory activity (one of Method A TR-FRET, Method B electrophoretic mobility shift, Method C radiometric filter binding)
# T1 construct: purified from insect cells as a full-length construct containing a N-terminal 6X-His tag; His6 (N); made in house; host or cells: insect cells (Method C)
# T1 sequence (Q06187 whole entry): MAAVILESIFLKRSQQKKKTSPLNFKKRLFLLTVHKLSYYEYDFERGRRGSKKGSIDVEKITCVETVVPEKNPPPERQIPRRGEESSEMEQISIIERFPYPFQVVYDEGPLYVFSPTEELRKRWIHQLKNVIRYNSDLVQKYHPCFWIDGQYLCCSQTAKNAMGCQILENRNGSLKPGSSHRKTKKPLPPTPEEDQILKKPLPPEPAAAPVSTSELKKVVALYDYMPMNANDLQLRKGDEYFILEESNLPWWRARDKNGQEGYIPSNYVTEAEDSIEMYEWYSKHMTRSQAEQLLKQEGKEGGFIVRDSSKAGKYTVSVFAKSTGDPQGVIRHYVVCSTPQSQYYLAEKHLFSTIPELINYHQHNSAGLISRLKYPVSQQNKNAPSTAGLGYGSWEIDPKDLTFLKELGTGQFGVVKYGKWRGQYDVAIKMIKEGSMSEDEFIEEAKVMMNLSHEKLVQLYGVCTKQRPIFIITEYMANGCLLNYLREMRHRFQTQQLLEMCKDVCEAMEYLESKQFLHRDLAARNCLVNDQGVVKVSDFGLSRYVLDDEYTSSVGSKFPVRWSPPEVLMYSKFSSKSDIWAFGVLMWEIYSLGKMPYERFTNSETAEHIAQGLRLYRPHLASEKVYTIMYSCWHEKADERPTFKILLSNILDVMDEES
# Summary of the method: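 Method A: TR-FRET with 0.5 nM Btk at [ATP]=Km, EDTA-quenched, 665/615 nm ratio; Ki(app) converted to IC50. Method B: 1 nM full-length His6 human BTK, 1 μM FAM peptide, pH 7.5, mobility-shift product/sum ratio, 12-point 4-parameter fit. Method C: radiometric filter binding, 8 nM His-tagged BTK, 0.2 mg/mL poly-Glu-Tyr.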
# TEC = molecular target: T2, TEC (Homo sapiens, UniProt P42680); assay: Inhibition of a panel of kinases (in vitro HotSpot kinase assay, 33P-ATP, 1 μM ATP); settings: for IC50: HotSpot kinase assay, 1 μM ATP; for TEC/Btk: ratio of TEC IC50 to Btk IC50 (selectivity)
# T2 sequence (P42680 1-631): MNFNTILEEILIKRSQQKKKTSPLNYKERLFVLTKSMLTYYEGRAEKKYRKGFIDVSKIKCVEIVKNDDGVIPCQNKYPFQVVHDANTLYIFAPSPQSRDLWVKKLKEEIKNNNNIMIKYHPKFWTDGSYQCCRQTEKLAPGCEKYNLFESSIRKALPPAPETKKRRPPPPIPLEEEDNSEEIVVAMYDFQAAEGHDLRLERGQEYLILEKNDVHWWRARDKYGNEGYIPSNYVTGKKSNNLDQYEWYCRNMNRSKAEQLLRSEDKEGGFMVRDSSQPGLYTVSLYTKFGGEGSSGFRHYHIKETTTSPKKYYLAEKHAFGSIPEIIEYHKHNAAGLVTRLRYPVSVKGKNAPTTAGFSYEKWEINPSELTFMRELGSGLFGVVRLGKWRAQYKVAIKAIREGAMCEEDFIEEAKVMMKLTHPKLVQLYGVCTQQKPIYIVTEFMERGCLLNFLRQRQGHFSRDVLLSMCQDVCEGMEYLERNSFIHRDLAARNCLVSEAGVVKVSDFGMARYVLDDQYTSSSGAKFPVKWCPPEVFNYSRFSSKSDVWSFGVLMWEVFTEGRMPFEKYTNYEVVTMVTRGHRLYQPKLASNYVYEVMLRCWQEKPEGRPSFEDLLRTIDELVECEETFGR
# Summary of the method: (§1)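 Degree of kinase inhibition is determined in vitro using isolated enzymes, a matched substrate and radiolabelled ATP (1 μM).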
# panel of kinases = molecular target: T3, panel of kinases (Homo sapiens, UniProt P51813); assay: Inhibition of a panel of kinases (in vitro HotSpot kinase assay, 33P-ATP, 1 μM ATP), other kinases; settings: BMX wild-type, read-out: BMX-WT IC50
# T3 sequence (P51813 1-675): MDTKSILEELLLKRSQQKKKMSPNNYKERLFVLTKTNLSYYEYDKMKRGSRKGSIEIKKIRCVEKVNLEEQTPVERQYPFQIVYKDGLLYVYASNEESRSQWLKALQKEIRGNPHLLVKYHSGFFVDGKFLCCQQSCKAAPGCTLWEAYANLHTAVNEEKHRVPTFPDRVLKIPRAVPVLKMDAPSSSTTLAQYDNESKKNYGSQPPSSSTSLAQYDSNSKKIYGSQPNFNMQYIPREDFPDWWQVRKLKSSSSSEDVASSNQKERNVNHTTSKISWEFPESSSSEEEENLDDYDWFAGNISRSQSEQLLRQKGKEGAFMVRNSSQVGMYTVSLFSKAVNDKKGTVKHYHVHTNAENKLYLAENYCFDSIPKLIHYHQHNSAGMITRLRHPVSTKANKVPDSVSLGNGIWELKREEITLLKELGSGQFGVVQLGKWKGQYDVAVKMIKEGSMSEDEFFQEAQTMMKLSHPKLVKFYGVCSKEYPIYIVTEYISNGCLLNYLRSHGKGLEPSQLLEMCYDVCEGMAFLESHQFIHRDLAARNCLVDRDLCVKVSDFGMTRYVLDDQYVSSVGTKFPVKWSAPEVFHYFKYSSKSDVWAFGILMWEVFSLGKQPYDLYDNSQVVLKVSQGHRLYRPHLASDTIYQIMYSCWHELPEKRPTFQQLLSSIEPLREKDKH
# Summary of the method: as §1
# [1] = wild-type Btk, read-out: Btk-WT IC50
Compound,IC50 (Btk; [1]) [nM],IC50 (TEC) [nM],TEC/Btk (TEC),IC50 (panel of kinases) [nM],"IC50 (Btk; method is one of A, B or C, not stated which, read-out: IC50 values against Btk) [nM]"
"CC(=O)N1CCC[C@H](Nc2n[nH]c3nccc(-c4ccc(CNC(=O)c5nc(C(C)(C)C)no5)c(F)c4)c23)C1 [Example 168, N-{[4-(3-{[(3S)-1-acetylpiperidin-3-yl]amino}-1H-pyrazolo[3,4-b]pyridin-4-yl)-2-fluorophenyl]methyl}-3-tert-butyl-1,2,4-oxadiazole-5-carboxamide]",40.3,> 10000,>100,> 10000,
"CC(=O)N[C@@H]1CCN(c2n[nH]c3nccc(-c4ccc(CNC(=O)c5nc(C(C)(C)C)no5)c(F)c4)c23)C1 [Example 373, N-[(4-{3-[(3R)-3-acetamidopyrrolidin-1-yl]-1H-pyrazolo[3,4-b]pyridin-4-yl}-2-fluorophenyl)methyl]-3-tert-butyl-1,2,4-oxadiazole-5-carboxamide]",0.0597,30.5,,36,
"CN(C)C(=O)N1CC[C@@H](Nc2n[nH]c3nccc(-c4ccc(C5(NC(=O)c6nc(C(C)(C)C)no6)CC5)cc4)c23)C1 [Example 117, 3-tert-butyl-N-{1-[4-(3-{[(3R)-1-(dimethylcarbamoyl)pyrrolidin-3-yl]amino}-1H-pyrazolo[3,4-b]pyridin-4-yl)phenyl]cyclopropyl}-1,2,4-oxadiazole-5-carboxamide]",46.2,> 10000,>100,5960,
"O=c1c2c(F)cc(C3CC3)cc2ccn1-c1cccc(-c2ccnc3[nH]nc(N[C@@H]4CCNC4)c23)c1CO [Compound 17, (R)-6-cyclopropyl-8-fluoro-2-(2-(hydroxymethyl)-3-(3-(pyrrolidin-3-ylamino)-1H-pyrazolo[3,4-b]pyridin-4-yl)phenyl)isoquinolin-1 (2H)-one]",312,5920,19,6410,
"C=CC(=O)N[C@@H]1CCN(c2n[nH]c3nccc(-c4ccc(CN(C)C(=O)c5nc(C(C)(C)C)no5)c(F)c4)c23)C1 [Example 335, 3-tert-butyl-N-{[2-fluoro-4-(3-{(3R)-3-[(prop-2-enoyl)amino]pyrrolidin-1-yl}-1H-pyrazolo[3,4-b]pyridin-4-yl)phenyl]methyl}-N-methyl-1,2,4-oxadiazole-5-carboxamide]",0.0513,57.7,,61.3,

# Continued by falling IC50 (Btk; [1]), values first:
IC50 (Btk; [1]) [nM],IC50 (TEC) [nM],TEC/Btk (TEC),IC50 (panel of kinases) [nM],"IC50 (Btk; method is one of A, B or C, not stated which, read-out: IC50 values against Btk) [nM]",Compound
4.39,5880,1339,4450,,"C[C@@H](NC(=O)c1nc(C(C)(C)C)no1)c1ccc(-c2ccnc3[nH]nc(C4=CCCN(C(=O)N(C)C)C4)c23)cc1 [Example 243, 5-[4-(4-{(1R)-1-[(3-tert-butyl-1,2,4-oxadiazole-5-carbonyl)amino]ethyl}phenyl)-1H-pyrazolo[3,4-b]pyridin-3-yl]-N,N-dimethyl-3,6-dihydropyridine-1(2H)-carboxamide]"
0.727,73.3,,19,,"C=CC(=O)N1CC[C@@H](Nc2n[nH]c3nccc(-c4ccc(CNC(=O)c5ccc6scnc6c5)c(F)c4)c23)C1 [Example 362, N-{[2-fluoro-4-(3-{[(3R)-1-(prop-2-enoyl)pyrrolidin-3-yl]amino}-1H-pyrazolo[3,4-b]pyridin-4-yl)phenyl]methyl}-1,3-benzothiazole-5-carboxamide]"
0.201,106,527,152,< 10,"CC#CC(=O)N1CC(Nc2n[nH]c3nccc(-c4ccc(CNC(=O)c5noc(C(C)(C)C)n5)c(F)c4)c23)C1 [Example 131, N-{[4-(3-{[1-(but-2-ynoyl)azetidin-3-yl]amino}-1H-pyrazolo[3,4-b]pyridin-4-yl)-2-fluorophenyl]methyl}-5-tert-butyl-1,2,4-oxadiazole-3-carboxamide]"

# Source: patent US20180194762A1 (Pharmacyclics LLC, priority 2017, published 2018)
